Test results reported in patent US20260076975A1, “TPK AGONIST AND METHOD FOR USING SAME TO TREAT NEURODEGENERATIVE DISEASES” (SHANGHAI RAISING PHARMACEUTICAL CO., LTD., priority 2022, published 2026).
pEC50: −log10 of the molar value. Read-outs that look alike come from different tables or passages of the source.

Target: TPK enzyme (Homo sapiens, UniProt Q9H3S4)
Experiment: TPK enzyme activity test (TDP formation from thiamine and ATP, HPLC detection)
Assay type: biochemical
Protocol: The purpose of this example was to test the promoting effect of compounds on TPK enzyme activity and evaluate the in vitro activity of the compounds based on EC50 and Emax.
1.1) The constant-temperature water-bath shaker was pre-heated half an hour in advance at a pre-heating temperature of 37° C.
1.2) The stock solution of the compound to be tested was taken out, allowed to thaw at room temperature, and then diluted to the required concentration.
1.3) The required reagents were placed on ice to thaw.
2.1) For each reaction system, TPK enzyme solution, Tris-HCl buffer solution, and ATP solution were added. The concentration of ATP used was 1-500 mM. The above three solutions were formulated into a homogeneous mixture.
2.2) The mixture of the above three solutions was dispensed into centrifuge tubes. Then, the compound at the required concentration was added to each centrifuge tube. Finally, thiamine solution (1-100 μM) was added. After the addition of the above system was completed, the centrifuge tubes were tightly capped, inserted into a floating board, and placed in the constant-temperature water-bath shaker that had been pre-heated to 37° C. for incubation for 0.5-2.0 hours.
2.3) After the incubation was completed, perchloric acid stop solution was added and mixed well. Samples were taken into 1.5 mL centrifuge tubes and stored at −20° C.
3.1) The samples stored at −20° C. were taken out, thawed at room temperature, and then subjected to derivatization treatment. The samples were placed in centrifuge tubes, a potassium ferricyanide derivatization reagent was added, and finally phosphoric acid stop solution was added to stop the reaction.
3.2) The derivatized samples were placed in sample vials for liquid chromatography analysis, and the contents of TDP/thiamine were detected by high performance liquid chromatography. TKP enzyme activity=TDP (nM)/mg protein/min.
The effects of the compounds of the present invention on TPK enzyme activity at different concentrations were determined according to the above procedures.

[1] = promoting effect on TPK enzyme activity
[2] = promoting effect on TPK enzyme activity, calculated with the effect of DMSO on TPK enzyme activity as 100%, read-out: Emax

Sequence of TPK enzyme (Q9H3S4 whole entry): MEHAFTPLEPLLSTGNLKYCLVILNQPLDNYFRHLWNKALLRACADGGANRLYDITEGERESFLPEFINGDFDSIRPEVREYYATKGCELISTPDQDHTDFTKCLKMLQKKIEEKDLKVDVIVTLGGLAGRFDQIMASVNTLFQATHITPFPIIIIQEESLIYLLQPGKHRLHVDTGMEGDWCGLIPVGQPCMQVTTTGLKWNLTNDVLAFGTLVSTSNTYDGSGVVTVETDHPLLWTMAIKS

Compound | pEC50 [1] | Emax [2] [%] | Emax [%] | Emax (promoting effect on TPK enzyme activity, calculated with the effect of DMSO on TPK enzyme activity as 100%) [%]
O=C1CCc2ccc(OCCCCN3CCC(c4cccc(Cl)c4Cl)CC3)cc2N1 [Compound 19] | 5.30 | 196 |  | 
CCOC(=O)c1nc(CNC(=O)CCCN2CCN(c3nc4ccccc4s3)CC2)sc1C [Compound 80, ethyl 2-((4-(4-(benzo[d]thiazol-2-yl)piperazin-1-yl)butanamido)methyl)-5-methylthiazole-4-carboxylate] | 5.59 | 150 |  | 
COc1ccc(NC(=O)CN2CCN(c3cccc(Cl)c3Cl)CC2)cc1N [Compound 47, N-(3-amino-4-methoxyphenyl)-2-(4-(2,3-dichlorophenyl)piperazin-1-yl)acetamide] | 5.33 | 199 |  | 
O=c1ccc2ccc(OCCCCN3CCN(c4nc5ccccc5s4)CC3)cc2[nH]1 [Compound 37, 7-(4-(4-(benzo[d]thiazol-2-yl)piperazin-1-yl)butoxy)quinolin-2(1H)-one] | 5.93 | 224 |  | 
Cc1cccc(NC(=O)CSCC(=O)N2CCN(c3cc(C(F)(F)F)cc(C(F)(F)F)c3)CC2)c1 [Compound 45, 2-((2-(4-(3,5-bis(trifluoromethyl)phenyl)piperazin-1-yl)-2-oxoethyl)thio)-N-(m-tolyl)acetamide] | 5.97 | 152 |  | 
O=C(CCOCc1ccc(N2CCCCC2)nc1)NCCc1cccc2ccc(O)cc12 [Compound 178, N-(2-(7-hydroxynaphthalen-1-yl)ethyl)-3-((6-(piperidin-1-yl)pyridin-3-yl)methoxy)propanamide] |  |  | 120 | 
Cc1ccc2c(n1)N(CCCCCN1CCN(c3cc(Cl)ccc3C)CC1)CCO2 [Compound 77, 4-(5-(4-(5-chloro-2-methylphenyl)piperazin-1-yl)pentyl)-6-methyl-3,4-dihydro-2H-pyrido[3,2-b][1,4]oxazine] |  |  | 146 | 
CC(C)(C)NC(=O)NC(=O)CN1CCC(c2c[nH]c3ccccc23)CC1 [Compound 137] | 3.96 | 146 |  | 
O=C1Cc2ccc(OCCCCN3CCN(c4cccc(Cl)c4Cl)CC3)cc2N1 [Compound 24, 6-(4-(4-(2,3-dichlorophenyl)piperazin-1-yl)butoxy)indolin-2-one] |  | 189 |  | 
COc1cncc(C#CCN2CCN(c3cccc(Cl)c3Cl)CC2)c1 [Compound 69, 1-(2,3-dichlorophenyl)-4-(3-(5-methoxypyridin-3-yl)prop-2-yn-1-yl)piperazine] | 5.56 |  | 194 | 
COc1ccc(CCNC(=O)N2CCN(c3cccc(Cl)c3Cl)CC2)cc1OC [Compound 64, 4-(2,3-dichlorophenyl)-N-(3,4-dimethoxyphenethyl)piperazine-1-carboxamide] | 5.33 |  | 184 | 
COc1cccc2cc(C(=O)N3CCN(c4cccc(C(F)(F)F)c4)CC3)c(=O)oc12 [Compound 150] | 6.86 | 212 |  | 
O=C1CCc2ccc(OCCCCN3CCN(c4cccc(C(F)(F)F)c4)CC3)cc2N1 [Compound 6, 7-(4-(4-(3-(trifluoromethyl)phenyl)piperazin-1-yl)butoxy)-3,4-dihydroquinolin-2(1H)-one] | 5.90 | 215 |  | 
Cc1cc(=O)oc2cc(OCC(=O)N3CCN(c4cccc(C(F)(F)F)c4)CC3)ccc12 [Compound 148] | 5.91 | 165 |  | 
O=C1CCc2cc(S(=O)(=O)N3CCN(c4cccc(C(F)(F)F)c4)CC3)ccc2N1 [Compound 157] | 5.58 | 155 |  | 
O=C(CC1Oc2ccccc2NC1=O)NCCN1CCN(c2cccc(Cl)c2Cl)CC1 (stereo not drawn) [Compound 85, N-(2-(4-(2,3-dichlorophenyl)piperazin-1-yl)ethyl)-2-(3-oxo-3,4-dihydro-2H-benzo[b][1,4]oxazin-2-yl)acetamide] |  | 168 |  | 
COc1cccc(NC(=O)CNC(=O)N2CCN(c3cccc(Cl)c3Cl)CC2)c1 [Compound 68, 4-(2,3-dichlorophenyl)-N-(2-((3-methoxyphenyl)amino)-2-oxoethyl)piperazine-1-carboxamide] |  |  | 144 | 
CC(=O)N1CCCc2cc(C(=O)N3CCN(c4cccc(Cl)c4Cl)CC3)ccc21 [Compound 166, 1-(6-(4-(2,3-dichlorophenyl)piperazine-1-carbonyl)-3,4-dihydroquinolin-1(2H)-yl)ethan-1-one] | 5.37 |  | 156 | 
Clc1cccc(N2CCN(CCCCOc3ccc4ncsc4c3)CC2)c1Cl [Compound 29, 6-(4-(4-(2,3-dichlorophenyl)piperazin-1-yl)butoxy)benzo[d]thiazole] | 5.64 | 191 |  | 

Compound | pEC50 [1] | Emax [2] [%] | Emax [%] | Emax (promoting effect on TPK enzyme activity, calculated with the effect of DMSO on TPK enzyme activity as 100%) [%]
COc1cncc(C#CCCN2CCN(c3cccc(Cl)c3Cl)CC2)c1 [Compound 71, 1-(2,3-dichlorophenyl)-4-(4-(5-methoxypyridin-3-yl)but-3-yn-1-yl)piperazine] | 5.92 |  | 189 | 
Cc1ccc(Cl)cc1N1CCN(CCNC(=O)CC2Oc3ccccc3NC2=O)CC1 (stereo not drawn) [Compound 91] | 4.59 |  |  | 200.91
COc1ccc(NC(=O)CNC(=O)N2CCN(c3cccc(Cl)c3Cl)CC2)cc1OC [Compound 65, 4-(2,3-dichlorophenyl)-N-(2-((3,4-dimethoxyphenyl)amino)-2-oxoethyl)piperazine-1-carboxamide] |  |  | 133 | 
O=C1CCc2ccc(OCCNCCC3CC3c3cccc(Cl)c3Cl)cc2N1 (stereo not drawn) [Compound 102, 7-(2-((2-(2-(2,3-dichlorophenyl)cyclopropyl)ethyl)amino)ethoxy)-3,4-dihydroquinolin-2(1H)-one] | 4.90 | 170 |  | 
COc1ccc(/C=C/CN2CCN(c3cccc(Cl)c3Cl)CC2)cc1OC [Compound 60, (E)-1-(2,3-dichlorophenyl)-4-(3-(3,4-dimethoxyphenyl)allyl)piperazine] | 5.89 | 234 |  | 
COc1ccc(Cn2c(C(=O)N3CCC(CCOc4ccc5c(c4)NC(=O)CC5)CC3)cc3sccc32)cc1 [Compound 134, 7-(2-(1-(4-(4-methoxybenzyl)-4H-thieno[3,2-b]pyrrole-5-carbonyl)piperidin-4-yl)ethoxy)-3,4-dihydroquinolin-2(1H)-one] |  | 149 |  | 
Cc1ccc2c(n1)N(CCCCCN1CCN(c3cccc(Cl)c3Cl)CC1)CCO2 [Compound 75, 4-(5-(4-(2,3-dichlorophenyl)piperazin-1-yl)pentyl)-6-methyl-3,4-dihydro-2H-pyrido[3,2-b][1,4]oxazine] | 6.66 |  | 136 | 
CC(CNC(=O)COc1ccc2c(c1)CCC(=O)N2)N1CCCC1 (stereo not drawn) [Compound 152] | 5.02 | 161 |  | 
CCCc1cc(=O)n2nc(N3CCC(C(=O)NCc4ccc(CC)cc4)CC3)sc2n1 [Compound 151] | 5.47 | 155 |  | 
O=C1CCc2ccc(OCCCN3CCN(c4nc5ccccc5s4)CC3)cc2N1 [Compound 38, 7-(3-(4-(benzo[d]thiazol-2-yl)piperazin-1-yl)propoxy)-3,4-dihydroquinolin-2(1H)-one] | 5.93 | 157 |  | 
Cc1cccc(NC(=O)CSCC(=O)N2CCN(c3cccc(Cl)c3Cl)CC2)c1 [Compound 46] | 5.88 | 149 |  | 
O=C1CCc2ccc(OC#CCCN3CCN(c4cccc(Cl)c4Cl)CC3)cc2N1 [Compound 1, 7-((4-(4-(2,3-dichlorophenyl)piperazin-1-yl)but-1-yn-1-yl)oxy)-3,4-dihydroquinolin-2(1H)-one] | 5.94 | 183 |  | 
COc1cc(/C=C/C(=O)N2CCN(c3cccc(Cl)c3Cl)CC2)cc(OC)c1OC [Compound 57] |  | 135 |  | 
COc1ccc(C(=O)NCCCCC(=O)N2CCN(c3cccc(Cl)c3Cl)CC2)cc1OC [Compound 171, N-(5-(4-(2,3-dichlorophenyl)piperazin-1-yl)-5-oxopentyl)-3,4-dimethoxybenzamide] |  |  | 127 | 
C[C@@H]1C[C@@H](COc2ccc3c(c2)NC(=O)CC3)CN(CC[C@@H](N)c2cccc(Cl)c2Cl)C1 [Compound 135, 7-(((3R,5R)-1-((R)-3-amino-3-(2,3-dichlorophenyl)propyl)-5-methylpiperidin-3-yl)methoxy)-3,4-dihydroquinolin-2(1H)-one] |  | 133 |  | 
CC(O)COc1ccc(/C=C/CN2CCN(c3cccc(Cl)c3Cl)CC2)cc1O (stereo not drawn) [Compound 62, (E)-5-(3-(4-(2,3-dichlorophenyl)piperazin-1-yl)prop-1-en-1-yl)-2-(2-hydroxypropoxy)phenol] | 6.04 | 137 |  | 
COc1ccc(/C=C/C(=O)N2CCN(c3nc4ccccc4s3)CC2)cc1OC [Compound 74, (E)-1-(4-(benzo[d]thiazol-2-yl)piperazin-1-yl)-3-(3,4-dimethoxyphenyl)prop-2-en-1-one] | 4.92 | 182 |  | 
Oc1cncc(C#CCN2CCN(c3cccc(Cl)c3Cl)CC2)c1 [Compound 70, 5-(3-(4-(2,3-dichlorophenyl)piperazin-1-yl)prop-1-yn-1-yl)pyridin-3-ol] |  |  | 147 | 
